Laboratory results: patent EP4631938A1, “NITROGEN-CONTAINING HETEROCYCLE WITH SEROTONIN RECEPTOR-BINDING ACTIVITY AND CARBOCYCLIC DERIVATIVE” (Shionogi & Co., Ltd, priority 2022, dated 2024)

How the values were obtained:
[1] = target: T1, human recombinant 5-HT2A receptor (Homo sapiens, UniProt P28223); experiment: Test Example 1: 5-HT2A receptor binding inhibition test ([3H]-Ketanserin; non-specific ligand Serotonin HCl)
T1 construct: expressed in transfected cells; host or cells: Jump-In HEK cells (membrane preparation)
T1 sequence (P28223 whole entry): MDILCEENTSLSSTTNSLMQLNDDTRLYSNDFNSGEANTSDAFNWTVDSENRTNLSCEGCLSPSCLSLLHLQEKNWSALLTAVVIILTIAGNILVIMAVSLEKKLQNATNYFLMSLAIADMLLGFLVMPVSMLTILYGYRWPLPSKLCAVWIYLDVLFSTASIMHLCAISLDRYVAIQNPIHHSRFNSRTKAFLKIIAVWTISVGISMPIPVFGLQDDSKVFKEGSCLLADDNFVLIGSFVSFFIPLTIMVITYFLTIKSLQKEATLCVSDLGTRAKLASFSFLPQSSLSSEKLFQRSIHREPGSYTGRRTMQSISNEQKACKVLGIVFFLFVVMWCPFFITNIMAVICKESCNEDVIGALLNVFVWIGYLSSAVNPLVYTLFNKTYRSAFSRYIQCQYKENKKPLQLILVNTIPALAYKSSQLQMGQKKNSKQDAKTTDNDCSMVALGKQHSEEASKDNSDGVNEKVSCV
Method: The Kd value is calculated when the lot of the cell membrane is changed. 1 mmol/L non-specific binding calculating compound dissolved in DMSO or DMSO is previously dispensed to the microplate by 0.5 µL, and the cell membrane is diluted with an Assay buffer. The radioactive ligand solution is diluted step by step, and counts are checked with a liquid scintillator. The Assay buffer containing diluted cell membranes is dispensed by 50 µL/well into the microplate. The radioactive ligand solution is then dispensed by 50 µL/well into the microplate and the plate is sealed. The microplate is allowed to stand for 1.5 hours at room temperature (25°C). During this time, 50 mmol/L Tris-HCl (pH 7.4) is dispensed by 50 µL/well on the GF/B UniFilter plate and allowed to stand at 4°C for 1 hour or longer. Thereafter, filtration is performed with a Cell Harvester (PerkinElmer). The radioactive ligand solution is dispensed by 10 µL/well into empty wells of the GF/B UniFilter plate. After drying the GF/B UniFilter plate at room temperature, MicroScinti20 is dispensed by 50 µL/well into the GF/B UniFilter plate, and the plate is sealed. GF/B UniFilter plate is allowed to stand at room temperature overnight. The radioactivity of [^3H]-Ketanserin bound to the 5-HT2A receptor is measured using Microbeta2 (PerkinElmer) at a measurement time of 1 min/well. The Saturation curve is drawn from the measured value, and the Kd value is calculated from the slope of the Scatchard Plot.
A compound solution dissolved in DMSO is dispensed to a microplate by 0.5 µL, and a cell membrane and a hot ligand are each diluted with an Assay buffer. The Assay buffer containing diluted cell membrane is then dispensed by 50 µL/well into the microplate. The radioactive ligand solution is then dispensed by 50 µL/well into the microplate and the plate is sealed. Thereafter, the microplate is allowed to stand at room temperature (25°C) for 1.5 hours. During this time, 50 mmol/L Tris-HCl (pH 7.4) is dispensed by 50 µL/well into the GF/B UniFilter plate and allowed to stand at 4°C for 1 hour or longer. Thereafter, filtration is performed with a Cell Harvester (PerkinElmer). After drying the GF/B UniFilter plate at room temperature, MicroScinti20 is dispensed by 50 µL/well into the GF/B UniFilter plate, and the plate is sealed. GF/B UniFilter plate is allowed to stand at room temperature overnight. The radioactivity of [^3H]-Ketanserin bound to the 5-HT2A receptor is measured using Microbeta2 (PerkinElmer) at a measurement time of 1 min/well. Non-specific binding is calculated from the radioactivity of [^3H]-Ketanserin in the presence of 500 µmol/L Serotonin HCl of unlabeled ligand, and total binding is calculated from the radioactivity of [^3H]-Ketanserin in the absence of the compound of the present invention (Vehicle). Finally, the Ki value is calculated from the dose-response curve.
(The binding activity of the compound according to the present invention is calculated from the following binding inhibition rate (%).) Inhibition rate (%) = [1−(c−a)/(b−a)] × 100 [formula] • a; average cpm of non-specific binding • b; average cpm of total binding • c; cpm in the presence of the test compound
The compounds of the present invention were tested essentially as described above.

[2] = target: T2, human recombinant 5-HT2C receptor (Homo sapiens, UniProt P28335); experiment: Test Example 2: 5-HT2C receptor binding inhibition test ([3H]-Mesulergine; non-specific ligand Serotonin HCl)
T2 construct: expressed in transfected cells; host or cells: Jump-In HEK cells (membrane preparation)
T2 sequence (P28335 33-458): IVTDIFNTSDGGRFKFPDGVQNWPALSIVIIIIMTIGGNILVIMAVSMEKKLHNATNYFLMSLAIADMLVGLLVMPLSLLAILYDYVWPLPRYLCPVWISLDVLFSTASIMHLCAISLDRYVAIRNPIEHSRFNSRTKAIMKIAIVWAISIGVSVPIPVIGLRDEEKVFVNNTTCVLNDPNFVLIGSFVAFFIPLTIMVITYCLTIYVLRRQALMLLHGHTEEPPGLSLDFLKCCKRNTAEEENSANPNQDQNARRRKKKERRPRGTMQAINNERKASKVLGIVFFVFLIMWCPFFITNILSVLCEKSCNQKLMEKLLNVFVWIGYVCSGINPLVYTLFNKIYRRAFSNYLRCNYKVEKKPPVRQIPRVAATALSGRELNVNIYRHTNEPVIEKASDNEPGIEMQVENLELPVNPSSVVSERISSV
In short: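 Ki values come from dose-response curves of [3H]-mesulergine displacement from human 5-HT2C membranes after 2 h at 37°C, scored by scintillation counting of filter-bound radioactivity. Serotonin HCl (500 µmol/L) set non-specific binding; Kd per membrane lot was taken from Scatchard plots.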

[3] = target: T1, human recombinant 5-HT2A receptor; experiment: Test Example 1-2: 5-HT2A receptor binding inhibition test ([3H]-Ketanserin; non-specific ligand Ketanserin)
In short: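 Ki values were derived from dose-response inhibition of [3H]-ketanserin binding; nonspecific binding was set with 500 µmol/L ketanserin, and Kd was set for each membrane lot from Scatchard saturation plots. Incubation lasted 1.5 h at room temperature (25 °C). Bound radioligand was harvested on Tris-HCl (pH 7.4)-presoaked filters and counted.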

[4] = target: T2, human recombinant 5-HT2C receptor; experiment: Test Example 2-2: 5-HT2C receptor binding inhibition test ([3H]-Mesulergine; non-specific ligand Ketanserin); conditions: non-specific binding with 500 µmol/L Ketanserin, 37°C, 2 hours
In short: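 Membranes expressing the receptor were incubated with compound and [3H]-Mesulergine for 2 h at 37 °C, then filtered and counted by scintillation. Non-specific binding was defined with 500 µmol/L Ketanserin. Percent inhibition versus vehicle gave dose-response curves, from which Ki was derived using a Kd from Scatchard saturation analysis.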

[5] = target: T3, human ether-a-go-go related gene (hERG) channel (Homo sapiens, UniProt Q12809); experiment: Test Example 3: hERG test (FluxORII thallium flux, FLIPR, 8000 cells/well); format: cell-based; conditions: CHO cells expressing hERG channel, compound reacted for 10 minutes, 100% inhibition = E-4031 10.3 µmol/L
T3 construct: expressed in transfected cells; host or cells: CHO cells
T3 sequence (Q12809 whole entry): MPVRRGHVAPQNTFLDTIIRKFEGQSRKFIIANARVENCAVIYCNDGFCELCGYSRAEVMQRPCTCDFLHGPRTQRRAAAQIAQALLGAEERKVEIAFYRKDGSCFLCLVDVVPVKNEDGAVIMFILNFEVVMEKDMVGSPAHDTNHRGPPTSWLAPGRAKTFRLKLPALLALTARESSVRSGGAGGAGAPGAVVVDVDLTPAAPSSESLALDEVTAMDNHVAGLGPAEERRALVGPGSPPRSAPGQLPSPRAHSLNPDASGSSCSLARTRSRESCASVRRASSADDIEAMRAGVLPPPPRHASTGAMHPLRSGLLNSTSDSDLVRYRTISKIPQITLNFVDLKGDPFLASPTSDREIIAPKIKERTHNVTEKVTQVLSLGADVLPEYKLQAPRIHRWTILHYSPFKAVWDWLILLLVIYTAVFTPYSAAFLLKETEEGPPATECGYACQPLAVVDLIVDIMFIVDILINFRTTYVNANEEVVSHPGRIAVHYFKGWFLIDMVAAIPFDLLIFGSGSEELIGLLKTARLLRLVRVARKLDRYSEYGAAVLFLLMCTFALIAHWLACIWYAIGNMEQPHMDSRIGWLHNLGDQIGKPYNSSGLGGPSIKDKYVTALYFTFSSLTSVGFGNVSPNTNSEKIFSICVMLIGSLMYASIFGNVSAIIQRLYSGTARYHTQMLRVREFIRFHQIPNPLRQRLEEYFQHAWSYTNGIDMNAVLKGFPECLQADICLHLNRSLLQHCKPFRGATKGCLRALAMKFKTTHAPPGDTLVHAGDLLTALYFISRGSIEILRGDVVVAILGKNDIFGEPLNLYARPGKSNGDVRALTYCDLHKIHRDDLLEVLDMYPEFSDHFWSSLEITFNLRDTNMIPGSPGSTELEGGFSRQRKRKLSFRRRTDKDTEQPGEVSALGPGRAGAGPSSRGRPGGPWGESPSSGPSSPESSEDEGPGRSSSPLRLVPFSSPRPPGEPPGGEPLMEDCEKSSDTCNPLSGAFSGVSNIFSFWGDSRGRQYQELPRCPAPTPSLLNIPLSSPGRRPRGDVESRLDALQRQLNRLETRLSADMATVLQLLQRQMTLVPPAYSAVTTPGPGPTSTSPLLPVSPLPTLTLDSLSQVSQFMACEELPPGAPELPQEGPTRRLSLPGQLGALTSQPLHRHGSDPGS
Method: (§1) For the purpose of evaluating risk of an electrocardiogram QT interval prolongation of the compound of the present invention, effects of the compound are studied by evaluating the activity of potassium channel using CHO cells expressing human ether-a-go-go related gene (hERG) channel.
(§2) Evaluation is performed using a FluxORII Green Potassium Ion Channel Assay kit (Invitrogen: Molecular Probes).
Cells (8000 cells/well/40 µL) are seeded in a 384 assay plate, and are incubated overnight (37°C, 5% CO2). […]
(§3) A cell plate is placed on a cell-based kinetic assay system FLIPR (Molecular Devices, LLC.), and the compound is added to the cells so as to have a desired concentration and reacted for 10 minutes. When a mixed solution of potassium and thallium as a stimulator is added thereto, the potassium channel is opened, and thallium that flowed into the cells binds to the fluorescent indicator, so that the intracellular fluorescence signal increases, and the potassium channel current is detected as a fluorescence signal. […] Then, the inhibition rate is calculated from the signal intensity at each concentration. IC50 is calculated from the inhibition rate at each concentration.

[6] = target: T3, human ether-a-go-go related gene (hERG) channel; experiment: Test Example 3-2: hERG test (FluxORII thallium flux, FLIPR, 4000 cells/well); format: cell-based; conditions: CHO cells expressing hERG channel, compound reacted for 10 minutes, 100% inhibition = E-4031 10.3 µmol/L
Method: as §1, §2
Cells (4000 cells/well/40 µL) are seeded in a 384 assay plate, and are incubated overnight (37°C, 5% CO2). After replacing the medium with a Wash buffer (lxHBSS, 20 mM HEPES) with a microplate washer, a fluorescent indicator is added to the medium and allowed to incubate (37°C, 5% CO2) for 1 hour for incorporation of the fluorescent indicator into cells.
as §3

[7] = [3H]-Ketanserin, non-specific binding with 500 µmol/L Serotonin HCl, room temperature (25°C), 1.5 hours, read-out: h 5-HT2A Ki
[8] = [3H]-Mesulergine, non-specific binding with 500 µmol/L Serotonin HCl, 37°C, 2 hours
[9] = [3H]-Ketanserin, non-specific binding with 500 µmol/L Ketanserin, room temperature (25°C), 1.5 hours, read-out: h 5-HT2A Ki
[10] = human serotonin 5-HT2C receptor binding activity

Structure (SMILES)	Ki [4] [nM]	Ki [3, 9] [nM]	further results
Cn1ncc(Br)c1-c1cc(Nc2ccc(C(F)(F)F)cc2)ccc1OCCO [Compound I-001]	–	–	Ki [1, 7]: 0.447 nM; Ki [2, 8]: 1.44 nM
Cn1ncc(Br)c1-c1cc(Nc2ccc(C(F)(F)F)nc2)ccc1OCCO [I-002]	–	–	Ki [1]: 0.375 nM; Ki [2, 8]: 19.2 nM
Cn1ncc(Br)c1-c1cc(Nc2ccc(F)cc2)ccc1OCCO [Compound I-003]	–	–	Ki [1, 7]: 0.597 nM; Ki [2, 8]: 11.4 nM
Cn1ncc(Br)c1-c1cc(Nc2ccc(C(F)(F)F)cn2)ccc1OCCO [Compound I-004]	–	–	Ki [1, 7]: 0.42 nM; Ki [2, 8]: 0.387 nM
Cn1ncc(Br)c1-c1cc(Nc2ncc(C(F)(F)F)cc2F)ncc1OCCO [Compound I-062]	0.366	–	Ki [3]: 0.286 nM; IC50 [5]: > 52000 nM
Cn1ncc(Br)c1-c1cc(Nc2ccc(C(F)(F)F)nn2)ccc1OCCO [Compound I-007]	–	–	Ki [1, 7]: 0.548 nM; Ki [2, 8]: 14.9 nM
Cn1ncc(Br)c1-c1cc(Nc2ncc(C(F)(F)F)cc2F)ncc1OC(F)(F)CO [Compound I-228]	–	0.316	Ki [2, 10]: 0.748 nM; IC50 [6]: 50600 nM
CNC(=O)c1ccc(F)c(-c2cc(Nc3ncc(C(F)(F)F)cc3F)ncc2OCCO)c1F [Compound I-359]	–	0.952	Ki [2, 10]: 4.57 nM; IC50 [6]: > 52000 nM
Cc1nc(C)c(-c2cc(Nc3ccc(-c4ccc(F)cc4)cn3)cnc2O[C@H](C)CO)c(C)n1 [Compound I-271]	–	0.4	Ki [2, 10]: 3.92 nM; IC50 [6]: > 52000 nM
Cn1ncc(Br)c1-c1cc(Nc2ncc(C(F)(F)F)s2)ccc1OCCO [Compound I-005]	–	–	Ki [1, 7]: 0.301 nM; Ki [2, 8]: 1.08 nM
Cn1ncc(Br)c1-c1cc(Nc2ncc(C(F)(F)F)cn2)c(F)cc1OCCO [Compound I-148]	0.906	0.506	–
Cn1ncc(Br)c1-c1cc(Nc2nc3ccccc3s2)ccc1OCCO [Compound I-029]	0.636	0.286	–
CCn1ncc(Br)c1-c1cc(Nc2ncc(C(F)(F)F)cc2F)ccc1OCCO [Compound I-066]	0.17	0.222	–
Cn1ncc(Br)c1-c1cc(Nc2ncc(C(F)(F)F)cn2)ccc1OCCO [Compound I-105]	0.6	0.314	–
Cc1nc(C)c(-c2nc(Nc3ccc(C(F)(F)F)cc3)c(F)cc2OCCO)c(C)n1 [Compound I-267]	–	0.465	Ki [2, 10]: 0.786 nM; IC50 [6]: > 52000 nM
Cn1nccc1-c1cc(Nc2ncc(C(F)(F)F)cc2F)ccc1OCCO [Compound I-009]	–	–	Ki [1, 7]: 0.337 nM; Ki [2, 8]: 8.7 nM
Cn1ncc(Br)c1-c1cc(Nc2ccc(Cl)cn2)c(F)cc1OCCO [Compound I-153]	0.351	0.286	–
Cc1cnn(C)c1-c1cc(Nc2ncc(Cl)cc2F)ccc1OCCO [Compound I-140]	1.06	0.148	–
Cn1ncc(C#N)c1-c1cc(Nc2ccc(C(F)(F)F)cn2)c(F)cc1OCCO [Compound I-125]	6.04	0.36	–
C=C(C)c1cnn(C)c1-c1cc(Nc2ncc(C(F)(F)F)cc2F)ccc1OCCO [I-054]	1.03	–	Ki [3]: 0.632 nM
Cn1ncc(Br)c1-c1cc(Nc2nc3cc(Cl)ccc3s2)ccc1OCCO [Compound I-069]	0.36	0.373	–
Cn1ncc(Br)c1-c1cc(Nc2nc3cnccc3s2)ccc1OCCO [Compound I-076]	3	0.211	–
Cn1ncc(Br)c1-c1cc(Nc2ncc(C3CC3)s2)ccc1OCCO [Compound I-038]	0.666	0.215	–
Cc1noc(C)c1-c1cc(Nc2ncc(C(F)(F)F)cc2F)ccc1OCCO [Compound I-010]	1.41	0.246	–
Cn1cnc(F)c1-c1cc(Nc2ncc(C(F)(F)F)cc2F)ccc1OCCO [Compound I-106]	7.28	0.409	–
Cn1ncc(F)c1-c1cc(Nc2ncc(Cl)cc2F)cnc1OCCO [Compound I-139]	7.73	0.431	–
Cc1cnn(C)c1-c1cc(Nc2ncc(C(F)(F)F)cc2F)ncc1OCCO [Compound I-063]	2.09	–	Ki [3]: 0.337 nM; IC50 [5]: > 52000 nM
Cc1nc(C)c(-c2cc(Nc3ccc(C(F)(F)F)cn3)ccc2OCCO)c(C)n1 [Compound I-122]	1.38	0.485	–
Cc1cnn(C)c1-c1cc(Nc2ccc(C(F)(F)F)cn2)c(Oc2ccn(C)n2)cc1OCCO [Compound I-126]	4.42	0.654	–
